Test results: patent publication US20040186066A1, “Method of treatment with nelfinavir” (AGOURON PHARMACEUTICALS, INC., priority 2003, published 2004)
Structures can show the parent of a compound that is named as a salt. Where two headings read alike, the source gives them in different places.

What was measured:
[1] = Example 2: phase 1 crossover 3×3 study, fixed kilocalorie meal at 20% and 50% fat, single-dose pharmacokinetics of nelfinavir 250 mg tablets; type: in vivo, human (normal, healthy volunteers); conditions: for AUC / AUC(0-inf) / Cmax / AUC(0-t) / half-life / Tmax: human, plasma, oral, 1250 mg; for AUC: read-out: Nelfinavir AUC24; for AUC(0-t): read-out: AUC(0-tlqc), least-squares mean
Method: A study was conducted as a phase 1, randomized, open-label, crossover 3×3 study, designed to evaluate the impact of a fixed kilocalorie meal at 20% and 50% fat content on single-dose pharmacokinetic parameters of the nelfinavir 250 mg tablet formulation in normal, healthy volunteers. Subjects were dosed with 1250 mg of nelfinavir 3 times at one-week intervals and 24-hour PK profiles were collected following each of the doses. Each subject was assigned three meals with different fat contents prior to dosing (fasting, 500kcal with 20% fat, 500 kcal with 50% fat) using a Latin square design. Twenty-four subjects entered the study and twenty-two subjects completed it. Each subject received the following treatment in random order on Days 1, 8 and 15: 5×250 mg nelfinavir tablets with fasting; 5×250 mg nelfinavir tablets, with a meal comprising 500Kcal/20% fat; and 5×250 mg nelfinavir tablets with a meal having 500 Kcal/50% fat. The moderate calorie/low fat meal consisted of 500 Kcal with 20% fat (11.3 grams of fat). The moderate calorie/high fat meal consisted of 500 Kcal with 50% fat (27.8 grams of fat). Subjects were administered nelfinavir 1250-mg (five 250-mg tablets) on the morning of the pharmacokinetic evaluations. The nelfinavir terminal half-life (t½) in plasma is typically 3.5 to 5 hours. […] Subjects participated on an outpatient basis; however, subjects were admitted to the in-patient facility the evening prior to each PK evaluation and remained in the in-patient facility for approximately 16 hours post-dosing. The subjects returned the next morning (8 hours later) for their last 24 hr. pharmacokinetic blood draw. All pharmacokinetic evaluations were performed in the in-patient facility. Blood samples were collected and analyzed for plasma concentrations of nelfinavir and M8. For the fasting evaluation, subjects were required to complete an overnight fast of at least 10 hours prior to dosing in the morning. For the fed PK evaluations, subjects were required to complete an overnight fast of at least 10 hours, prior to receiving the protocol-specific standardized breakfast meal. Subjects were given 30 minutes to complete their standardized breakfast meal. Dosing was performed in the morning, immediately following the subject's completion of the standardized breakfast meal and after the subject's predose PK specimen had been collected. Subjects could not ingest water 1 hour prior to or 1 hour after dosing. A standardized lunch was given at least 4 hours after the morning dose and a standardized dinner was given at least 10 hours after the morning dose. Actual sampling times were used for all data evaluation. Mean Cmax and AUC values were calculated as the antilogs of least-squares mean log-transformed values (analogous to geometric means). Ratios and confidence intervals for Cmax and AUC values are also based on log-transformed values. Mean values for all other pharmacokinetic parameters are least-squares means. Ratios and confidence intervals for these parameters are based on untransformed values. Blood samples, 5 mL each, were collected as in Example 1. The timing of each sample collection was as follows: Predose and at 0.5, 1, 2, 3, 4, 6, 8, 12, 16 and 24 hours postdose on Days 1, 8, and 15. All blood samples were kept at […] (using either wet ice or cryoblock) until centrifugation. Blood samples were centrifuged within 1 hour of collection, at 3000 rpm (approximately 2619×g) for 15 minutes, to separate the plasma. The plasma samples were split evenly into 2 aliquots and stored in appropriately labeled polypropylene transport tubes. Plasma was stored frozen at […] or lower until analysis. Pharmacokinetic parameter values were calculated from plasma nelfinavir and M8 concentration-time data using standard noncompartmental pharmacokinetic methods as in Example 1. Plasma concentrations of nelfinavir and M8 were measured by validated high-performance liquid chromatography (HPLC) methods. […]

[2] = light breakfast 350 kcal/13 g fat vs standard breakfast 800 kcal/35 g fat; cited from earlier work
[3] = single dose; cited from earlier work
[4] = meals 517 to 759 Kcal, 153 to 313 Kcal from fat; cited from earlier work
[5] = Kcal/Fat % 500/20% relative to fasting
[6] = Kcal/Fat % 500/50% relative to fasting
[7] = nelfinavir, moderate calorie/high fat meal (500 Kcal/50% fat) vs fasting
[8] = nelfinavir, moderate calorie/low fat meal (500 Kcal/20% fat) vs fasting

Nelfinavir AUC24 (×fasting) [1, 5]: 3.2 X
Nelfinavir AUC∞ (×fasting) [1, 5]: 3.0 X
Nelfinavir Cmax (×fasting) [1, 5]: 2.5 X
Nelfinavir AUC24 (×fasting) [1, 6]: 5.2 X
Nelfinavir AUC∞ (×fasting) [1, 6]: 5.1 X
Nelfinavir Cmax (×fasting) [1, 6]: 3.8 X
AUC ([1]; 1250 mg single dose, fasting): 10000 ng·h/mL
AUC(0-inf) ([1]; 1250 mg single dose, fasting, read-out: Nelfinavir AUC∞): 10700 ng·h/mL
Cmax ([1]; 1250 mg single dose, fasting, read-out: Nelfinavir Cmax): 1630 ng/mL
AUC ([1]; Kcal/Fat % 500/20%): 32600 ng·h/mL
AUC(0-inf) ([1]; Kcal/Fat % 500/20%, read-out: Nelfinavir AUC∞): 32700 ng·h/mL
Cmax ([1]; Kcal/Fat % 500/20%, read-out: Nelfinavir Cmax): 4000 ng/mL
AUC ([1]; Kcal/Fat % 500/50%): 52600 ng·h/mL
AUC(0-inf) ([1]; Kcal/Fat % 500/50%, read-out: Nelfinavir AUC∞): 54600 ng·h/mL
Cmax ([1]; Kcal/Fat % 500/50%, read-out: Nelfinavir Cmax): 6200 ng/mL
AUC(0-t) ([1]; nelfinavir, 5×250-mg tablets during moderate calorie/high fat meal (500 Kcal/50% fat)): 52600 ng·h/mL
AUC(0-inf) ([1]; nelfinavir, 5×250-mg tablets during moderate calorie/high fat meal (500 Kcal/50% fat), read-out: AUC(0-∞), least-squares mean): 54600 ng·h/mL
Cmax ([1]; nelfinavir, 5×250-mg tablets during moderate calorie/high fat meal (500 Kcal/50% fat), read-out: Cmax, least-squares mean): 6160 ng/mL
half-life ([1]; nelfinavir, 5×250-mg tablets during moderate calorie/high fat meal (500 Kcal/50% fat), read-out: t1/2 (terminal half-life), least-squares mean (converted)): 3.43 h
Tmax ([1]; nelfinavir, 5×250-mg tablets during moderate calorie/high fat meal (500 Kcal/50% fat), read-out: tmax, least-squares mean): 4.48 h
AUC(0-t) ([1]; nelfinavir, 5×250-mg tablets during moderate calorie/low fat meal (500 Kcal/20% fat)): 32600 ng·h/mL
AUC(0-inf) ([1]; nelfinavir, 5×250-mg tablets during moderate calorie/low fat meal (500 Kcal/20% fat), read-out: AUC(0-∞), least-squares mean): 32700 ng·h/mL
Cmax ([1]; nelfinavir, 5×250-mg tablets during moderate calorie/low fat meal (500 Kcal/20% fat), read-out: Cmax, least-squares mean): 4040 ng/mL
half-life ([1]; nelfinavir, 5×250-mg tablets during moderate calorie/low fat meal (500 Kcal/20% fat), read-out: t1/2 (terminal half-life), least-squares mean (converted)): 3.08 h
Tmax ([1]; nelfinavir, 5×250-mg tablets during moderate calorie/low fat meal (500 Kcal/20% fat), read-out: tmax, least-squares mean): 4.19 h
AUC(0-t) ([1]; nelfinavir, 5×250-mg tablets single dose, fasting (reference)): 10000 ng·h/mL
AUC(0-inf) ([1]; nelfinavir, 5×250-mg tablets single dose, fasting (reference), read-out: AUC(0-∞), least-squares mean): 10700 ng·h/mL
Cmax ([1]; nelfinavir, 5×250-mg tablets single dose, fasting (reference), read-out: Cmax, least-squares mean): 1630 ng/mL
half-life ([1]; nelfinavir, 5×250-mg tablets single dose, fasting (reference), read-out: t1/2 (terminal half-life), least-squares mean (converted)): 4.1 h
Tmax ([1]; nelfinavir, 5×250-mg tablets single dose, fasting (reference), read-out: tmax, least-squares mean): 2.42 h
half-life ([1]; nelfinavir, fasting subjects and test meals, similar, read-out: elimination t½, average (converted)): ~4 h
Tmax ([1]; nelfinavir, meal of 20% fat content (500 kcal), read-out: mean tmax longer relative to fasting subjects): ~2 h
Tmax ([1]; nelfinavir, meal of 50% fat content (500 kcal), read-out: mean tmax longer relative to fasting subjects): ~2 h
AUC increase compared to the fasting AUC ([1]; nelfinavir, 500 Kcal, 50% fat breakfast): 5.2 fold
AUC increase compared to the fasting AUC ([1]; nelfinavir, 500 kcal, 20% fat breakfast): 3.2 fold
% coefficient of variation (CV) for AUC(0-∞) ([1]; nelfinavir, fasting subjects): 75%
bioavailability higher relative to fasting subjects, based on AUC(0-∞) ([1]; nelfinavir, meal containing 20% fat (500 kcal)): approximately 3 fold
bioavailability higher relative to fasting subjects, based on AUC(0-∞) ([1]; nelfinavir, meal containing 50% fat (500 kcal)): ~5 fold
mean Cmax higher relative to fasting ([1]; nelfinavir, meal of 20% fat content (500 kcal)): approximately 2.5 fold
mean Cmax higher relative to fasting ([1]; nelfinavir, meal of 50% fat content (500 kcal)): ~3.8 fold
AUC(0-tlqc) ratio (100% × test/reference) [1, 7]: 524%
AUC(0-∞) ratio (100% × test/reference) [1, 7]: 508%
Cmax ratio (100% × test/reference) [1, 7]: 378%
t1/2 ratio (100% × test/reference) [1, 7]: 83.7%
tmax ratio (100% × test/reference) [1, 7]: 186%
AUC(0-tlqc) ratio (100% × test/reference) [1, 8]: 325%
AUC(0-∞) ratio (100% × test/reference) [1, 8]: 305%
Cmax ratio (100% × test/reference) [1, 8]: 248%
t1/2 ratio (100% × test/reference) [1, 8]: 75.0%
tmax ratio (100% × test/reference) [1, 8]: 173%
% coefficient of variation (CV) for AUC(0-∞) ([1]; nelfinavir, test meal containing 20% fat): 48%
% coefficient of variation (CV) for AUC(0-∞) ([1]; nelfinavir, test meal containing 50% fat): 43%
Compound: Cc1c(O)cccc1C(=O)N[C@@H](CSc1ccccc1)[C@H](O)CN1C[C@H]2CCCC[C@H]2C[C@H]1C(=O)NC(C)(C)C (relative stereo) [nelfinavir, [3S-(3R*, 4aR*, 8aR*, 2′S*, 3′S*)]-2-[2′ hydroxy-3′-phenylthiomethyl-4′-aza-5′-oxo-5′-(2″-methyl-3″-hydroxy-phenyl)pentyl]-decahydroiso-quinoline-3-N-t-butylcarboxamide methanesulfonic acid salt]
AUC0-12h less with light breakfast than with standard breakfast [2]: 13%
effect of the two breakfasts on C1-hour post dose, Cmax and C12-hours [2]: No significant effects
AUC under fasting conditions as % of AUC with food [3]: 27-50%
AUC, fed compared to fasting [4]: two to three-fold higher
maximum plasma concentrations, fed compared to fasting [4]: two to three-fold higher
